Source: patent US20220323455A1, “FUSED HETEROCYCLIC DERIVATIVES AS ANTIVIRAL AGENTS” (priority 2019, published 2022)

system: HBV; assay: HBV replication inhibition assay (BDNA assay) in HepG2.2.15 cells; type: cell-based, Hepatitis B virus; conditions: 6 days, encapsidated HBV DNA in supernatant
Experimental: HBV replication inhibition by the disclosed compounds were determined in cells infected or transfected with HBV or cells with stably integrated HBV, such as HepG2.2.15 cells (Sells et al. 1987). In this example, HepG2.2.15 cells were maintained in cell culture medium containing 10% fetal bovine serum (FBS), Geneticin, L-glutamine, penicillin and streptomycin. HepG2.2.15 cells were seeded in 96-well plates at a density of 40,000 cells/well and were treated with serially diluted compounds at a final DMSO concentration of 0.5% either alone or in combination by adding drugs in a checker box format. Cells were incubated with compounds for three days, after which medium was removed and fresh medium containing compounds was added to cells and incubated for another three days. At day 6, supernatant was removed and treated with DNase at 37° C. for 60 minutes, followed by enzyme inactivation at 75° C. for 15 minutes. Encapsidated HBV DNA was released from the virions and covalently linked HBV polymerase by incubating in lysis buffer (Affymetrix QS0010) containing 2.5 μg proteinase K at 50° C. for 40 minutes. HBV DNA was denatured by addition of 0.2 M NaOH and detected using a branched DNA (BDNA) QuantiGene assay kit according to manufacturer recommendation (Affymetrix). HBV DNA levels were also quantified using qPCR, based on amplification of encapsidated HBV DNA extraction with QuickExtraction Solution (Epicentre Biotechnologies) and amplification of HBV DNA using HBV specific PCR probes that can hybridize to HBV DNA and a fluorescently labeled probe for quantitation. In addition, cell viability of HepG2.2.15 cells incubated with test compounds alone or in combination was determined by using CellTitre-Glo reagent according to the manufacturer protocol (Promega). The mean background signal from wells containing only culture medium was subtracted from all other samples, and percent inhibition at each compound concentration was calculated by normalizing to signals from HepG2.2.15 cells treated with 0.5% DMSO using equation E1.
% inhibition(DMSOave−Xi)DMSOave×100% E1:
where DMSOave is the mean signal calculated from the wells that were treated with DMSO control (0% inhibition control) and Xi is the signal measured from the individual wells. EC50 values, effective concentrations that achieved 50% inhibitory effect, were determined by non-linear fitting using Graphpad Prism software (San Diego, Calif.) and equation E2.
Y=Ymin+(Ymax−Ymin)/(1+10(Log EC50−X)×HillSlope) E2:
where Y represents percent inhibition values and X represents the logarithm of compound concentrations.
Selected disclosed compounds were assayed in the HBV replication assay (BDNA assay), as described above, and a representative group of these active compounds is shown in Table 5.

SMILES	EC50
O=C(Nc1ccnc(Br)c1F)N1CCc2nn3c(c2C1)C(F)(F)CCC(F)(CO)C3 (single isomer, unassigned) [Example 48, (R*)—N-(2-Bromo-3-fluoropyridin-4-yl)-8,11,11-trifluoro-8-(hydroxymethyl)-3,4,8,9,10,11-hexahydro-1H-pyrido[4′,3′:3,4]pyrazolo[1,5-a]azepine-2(7H)-carboxamide]	0.011 µM
C[C@@H]1Cc2nn3c(c2CN1C(=O)Nc1ccc(F)c(C#N)c1)C(F)(F)CCC(C(C)(C)O)C3 (single isomer, unassigned) [Example 101, (3R,8S*)—N-(3-Cyano-4-fluorophenyl)-11,11-difluoro-8-(2-hydroxypropan-2-yl)-3-methyl-3,4,8,9,10,11-hexahydro-1H-pyrido[4′,3′:3,4]pyrazolo[1,5-a]azepine-2(7H)-carboxamide]	0.044 µM
N#Cc1cc(NC(=O)N2CCc3nn4c(c3C2)C(F)(F)CC(CO)CC4)ccc1F (single isomer, unassigned) [Example 134, (S*)—N-(3-Cyano-4-fluorophenyl)-11,11-difluoro-9-(hydroxymethyl) -3,4,8,9,10,11-hexahydro-1H-pyrido[4′,3′:3,4]pyrazolo[1,5-a]azepine-2(7H)-carboxamide]	0.017 µM
O=C(Nc1ccnc(Br)c1F)N1CCc2nn3c(c2C1)C(F)(F)CCC(O)(CF)C3 (single isomer, unassigned) [Example 39, (R*)—N-(2-Bromo-3-fluoropyridin-4-yl)-11,11-difluoro-8-(fluoromethyl)-8-hydroxy-3,4,8,9,10,11-hexahydro-1H-pyrido[4′,3′:3,4]pyrazolo[1,5-a]azepine-2(7H)-carboxamide]	0.144 µM
C#CC1(O)CCC(F)(F)c2c3c(nn2C1)C[C@@H](C)N(C(=O)Nc1ccc(F)c(C#N)c1)C3 (single isomer, unassigned) [Example 95, (3R,8R*)—N-(3-Cyano-4-fluorophenyl)-8-ethynyl-11,11-difluoro-8-hydroxy-3-methyl-3,4,8,9,10,11-hexahydro-1H-pyrido[4′,3′:3,4]pyrazolo[1,5-a]azepine-2(7H)-carboxamide]	0.013 µM
C[C@@H]1Cc2nn3c(c2CN1C(=O)Nc1ccnc(C(F)F)c1F)C(F)(F)CCC(O)(CC#N)C3 (single isomer, unassigned) [Example 90, (3R,8S*)-8-(Cyanomethyl)-N-(2-(difluoromethyl)-3-fluoropyridin-4-yl)-11,11-difluoro-8-hydroxy-3-methyl-3,4,8,9,10,11-hexahydro-1H-pyrido[4′,3′:3,4]pyrazolo[1,5-a]azepine-2(7H)-carboxamide]	0.054 µM
N#Cc1c(F)ccc(NC(=O)N2CCc3nn4c(c3C2)C(F)(F)CCC(CO)C4)c1F (single isomer, unassigned) [Example 25, (R*)—N-(3-Cyano-2,4-difluorophenyl)-11,11-difluoro-8-(hydroxymethyl)-3,4,8,9,10,11-hexahydro-1H-pyrido[4′,3′:3,4]pyrazolo[1,5-a]azepine-2(7H)-carboxamide]	0.034 µM
COC(=O)NCC1CCC(F)(F)c2c3c(nn2C1)C[C@@H](C)N(C(=O)Nc1ccc(F)c(C#N)c1)C3 (single isomer, unassigned) [Example 108, Methyl (((3R,8S*)-2-((3-cyano-4-fluorophenyl)carbamoyl)-11,11-difluoro-3-methyl-2,3,4,7,8,9,10,11-octahydro-1H-pyrido[4′,3′:3,4]pyrazolo[1,5-a]azepin-8-yl)methyl)carbamate]	0.012 µM
C#CC1(O)CCC(F)(F)c2c3c(nn2C1)C[C@@H](C)N(C(=O)Nc1ccnc(Br)c1F)C3 (single isomer, unassigned) [Example 99, (3R,8S*)—N-(2-Bromo-3-fluoropyridin-4-yl)-8-ethynyl-11,11-difluoro-8-hydroxy-3-methyl-3,4,8,9,10,11-hexahydro-1H-pyrido[4′,3′:3,4]pyrazolo[1,5-a]azepine-2(7H)-carboxamide]	0.275 µM
C#CC1(O)CCC(F)(F)c2c3c(nn2C1)C[C@@H](C)N(C(=O)Nc1ccnc(Br)c1F)C3 (single isomer, unassigned) [Example 96, (3R,8R*)—N-(2-Bromo-3-fluoropyridin-4-yl)-8-ethynyl-11,11-difluoro-8-hydroxy-3-methyl-3,4,8,9,10,11-hexahydro-1H-pyrido[4′,3′:3,4]pyrazolo[1,5-a]azepine-2(7H)-carboxamide]	0.035 µM
N#Cc1cc(NC(=O)N2CCc3nn4c(c3C2)C(F)(F)CCC(COCC(F)F)C4)ccc1F (single isomer, unassigned) [Example 29, (R*)—N-(3-Cyano-4-fluorophenyl)-8-((2,2-difluoroethoxy)methyl)-11,11-difluoro-3,4,8,9,10,11-hexahydro-1H-pyrido[4′,3′:3,4]pyrazolo[1,5-a]azepine-2(7H)-carboxamide]	0.078 µM
COC(=O)NCC1CCC(F)(F)c2c3c(nn2C1)C[C@@H](C)N(C(=O)Nc1ccnc(Br)c1F)C3 (single isomer, unassigned) [Example 109, Methyl (((3R,8S*)-2-((2-bromo-3-fluoropyridin-4-yl)carbamoyl)-11,11-difluoro-3-methyl-2,3,4,7,8,9,10,11-octahydro-1H-pyrido[4′,3′:3,4]pyrazolo[1,5-a]azepin-8-yl)methyl)carbamate]	0.032 µM
C[C@@H]1Cc2nn3c(c2CN1C(=O)Nc1ccnc(Br)c1F)C(F)(F)CCC(C(C)(C)O)C3 (single isomer, unassigned) [Example 102, (3R,8S*)—N-(2-Bromo-3-fluoropyridin-4-yl)-1111-difluoro-8-(2-hydroxypropan-2-yl)-3-methyl-3,4,8,9,10,11-hexahydro-1H-pyrido[4′,3′:3,4]pyrazolo[1,5-a]azepine-2(7H)-carboxamide]	0.088 µM
C=CC1(O)CCC(F)(F)c2c3c(nn2C1)CCN(C(=O)Nc1ccc(F)c(C#N)c1)C3 (single isomer, unassigned) [Example 57, (S*)—N-(3-Cyano-4-fluorophenyl)-11,11-difluoro-8-hydroxy-8-vinyl-3,4,8,9,10,11-hexahydro-1H-pyrido[4′,3′:3,4]pyrazolo[1,5-a]azepine-2(7H)-carboxamide]	0.009 µM
N#CCC1(O)CCC(F)(F)c2c3c(nn2C1)CCN(C(=O)Nc1ccnc(C(F)F)c1F)C3 (single isomer, unassigned) [Example 42, (R*)-8-(Cyanomethyl)-N-(2-(difluoromethyl)-3-fluoropyridin-4-yl)-11,11-difluoro-8-hydroxy-3,4,89,10,11-hexahydro-1H-pyrido[4′,3′:3,4]pyrazolo[1,5-a]azepine-2(7H)-carboxamide]	0.163 µM
C#CC1(O)CCC(F)(F)c2c3c(nn2C1)C[C@@H](C)N(C(=O)Nc1ccc(F)c(C#N)c1)C3 (single isomer, unassigned) [Example 98, (3R,8S*)—N-(3-Cyano-4-fluorophenyl)-8-ethynyl-11,11-difluoro-8-hydroxy-3-methyl-3,4,8,9,10,11-hexahydro-1H-pyrido[4′,3′:3,4]pyrazolo[1,5-a]azepine-2(7H)-carboxamide]	0.051 µM
C[C@@H]1Cc2nn3c(c2CN1C(=O)Nc1ccnc(C(F)F)c1F)C(F)(F)CCC(O)(CF)C3 (single isomer, unassigned) [Example 85, (3R,8R*)—N-(2-(Difluoromethyl)-3-fluoropyridin-4-yl)-11,11-difluoro-8-(fluoromethyl)-8-hydroxy-3-methyl-3,4,8,9,10,11-hexahydro-1H-pyrido[4′,3′:3,4]pyrazolo[1,5-a]azepine-2(7H)-carboxamide]	0.045 µM
O=C(Nc1ccc(F)c(C(F)(F)F)c1)N1CCc2nn3c(c2C1)C(F)(F)CCC(CO)C3 (single isomer, unassigned) [Example 20, (S*)-11,11-Difluoro-N-(4-fluoro-3-(trifluoromethyl)phenyl)-8-(hydroxymethyl)-3,4,8,9,10,11-hexahydro-1H-pyrido[4′,3′:3,4]pyrazolo[1,5-a]azepine-2(7H)-carboxamide]	0.004 µM
C[C@@H]1Cc2nn3c(c2CN1C(=O)Nc1ccnc(C(F)F)c1F)C(F)(F)CCC(O)(CC#N)C3 (single isomer, unassigned) [Example 92, (3R,8R*)-8-(Cyanomethyl)-N-(2-(difluoromethyl)-3-fluoropyridin-4-yl)-11,11-difluoro-8-hydroxy-3-methyl-3,4,8,9,10,11-hexahydro-1H-pyrido[4′,3′:3,4]pyrazolo[1,5-a]azepine-2(7H)-carboxamide]	0.191 µM

same assay, conditions: Hepatitis B virus, HepG2.2.15, 144 h, 6 days, encapsidated HBV DNA in supernatant

SMILES	EC50
CC1Cc2nn3c(c2CN1C(=O)Nc1ccc(F)c(C#N)c1)C(F)(F)C[C@H](CO)CC3 (some centres unmarked) [Example 131]	0.003 µM
